The record followed here is paper PMC3758898 (Bioorganic & medicinal chemistry, 2013).

Assay [1] addresses T1, UPPS (Undecaprenyl Pyrophosphate Synthase) (Bacteroides fragilis, UniProt Q5LI17).
T1 sequence (Q5LI17 1-244): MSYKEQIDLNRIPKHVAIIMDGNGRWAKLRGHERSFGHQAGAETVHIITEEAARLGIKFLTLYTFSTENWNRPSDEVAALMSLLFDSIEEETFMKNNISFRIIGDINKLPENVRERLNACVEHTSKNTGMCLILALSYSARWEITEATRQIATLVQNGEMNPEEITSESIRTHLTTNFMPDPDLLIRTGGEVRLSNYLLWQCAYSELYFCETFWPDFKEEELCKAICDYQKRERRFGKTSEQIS
The assay can be described thus: RP-HPLC with fluorescence detection. The class given is biochemical. The settings on record: IPP 0.2 mM, MgCl2 0.5 mM, KCl 5 mM, 0.1% DDM, HEPES pH 7.4, 37 °C, 1 h.

Assay [2] addresses T1, UPPS (Undecaprenyl Pyrophosphate Synthase). The assay can be described thus: RP-HPLC with fluorescence detection, TLC, ESI-MS, 1H-NMR of product. The class given is biochemical. The settings on record: IPP 0.2 mM, MgCl2 0.5 mM, KCl 5 mM, 0.1% DDM, HEPES pH 7.4, 37 °C.

As for `C/C(=C/COP(=O)(O)OP(=O)(O)O)CC/C=C(\C)CNc1ccccc1C(N)=O` [6a, (6Z)-8-(2-amideaniline)-3,7-dimethyl-2,6-octadiene diphosphate], in assay [1], the “RP-HPLC with fluorescence detection” value is “we observed identical activity with 2AB-N-PP”.
Consider `C/C(=C\COP(=O)(O)OP(=O)(O)O)CC/C=C(\C)CNc1ccccc1C(N)=O` [6b, (6E)-8-(2-amideaniline)-3,7-dimethyl-2,6-octadiene diphosphate], for which the “RP-HPLC with fluorescence detection, TLC, ESI-MS, 1H-NMR of product” value in assay [2] is recorded as “these results confirmed the formation of the long chain isoprenoid with 2AB-G-PP as the UPPS substrate”.
